Data from ChEMBL document CHEMBL1201862, “PubChem BioAssay data set” (2004).
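These data come from cells grown in 96-well plates and exposed to compound for 48 hours at five concentrations. At the GI50, growth is halved.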 The source made the active and inactive calls. Rule as the data show it: active = GI50 up to about 1.1 µM and inactive = higher.

Tests used:
Assay in all cases: inhibition of tumour cell growth, NCI panel, 48 h
786-0 = system: 786-0
A498 = system: A498
A549 = system: A549
EKVX = system: EKVX
IGROV-1 = system: IGROV-1
LOX IMVI = system: LOX IMVI
Malme-3M = system: Malme-3M
SF-295 = system: SF-295
SF-539 = system: SF-539
SK-MEL-28 = system: SK-MEL-28
SK-MEL-2 = system: SK-MEL-2
SK-OV-3 = system: SK-OV-3
SN12C = system: SN12C
SNB-19 = system: SNB-19
U-251 = system: U-251
SR = system: SR

Measured: GI50

N#CC(C(=N/NC(N)=S)/C(=N/NC(N)=S)C(C#N)c1ccc(Cl)cc1)c1ccc(Cl)cc1 (stereo not drawn)
inactive: 786-0 > 100 µM | A498 > 100 µM | A549 > 100 µM | EKVX > 100 µM | IGROV-1 > 100 µM | LOX IMVI > 100 µM | Malme-3M > 100 µM | SF-295 > 100 µM | SF-539 > 100 µM | SK-MEL-28 81.3 µM | SK-MEL-2 > 100 µM | SK-OV-3 > 100 µM | SN12C > 100 µM | SNB-19 > 100 µM | U-251 > 100 µM

[N-]=[N+]=Nc1cc(=O)n(-c2ccccc2)c2ccccc12
inactive: 786-0 > 100 µM | A549 > 100 µM | IGROV-1 > 100 µM | LOX IMVI > 100 µM | Malme-3M > 100 µM | SF-295 > 100 µM | SF-539 > 100 µM | SK-MEL-28 > 100 µM | SK-MEL-2 > 100 µM | SK-OV-3 > 100 µM | SN12C > 100 µM | SR > 100 µM | U-251 > 100 µM

NNC(=S)N/N=C/C(=C/Nc1ccccc1)[N+](=O)[O-]
active: SR 1 µM
inactive: 786-0 > 100 µM | A549 > 100 µM | EKVX > 100 µM | IGROV-1 > 100 µM | LOX IMVI > 100 µM | Malme-3M > 100 µM | SF-295 > 100 µM | SF-539 > 100 µM | SK-MEL-28 > 100 µM | SK-MEL-2 > 100 µM | SK-OV-3 > 100 µM | SN12C > 100 µM | SNB-19 > 100 µM

CCC(/C(=N\Nc1c(Cl)cc(Cl)cc1Cl)c1ccccc1)n1ccnc1C (stereo not drawn)
inactive: 786-0 11.7 µM | A498 14.2 µM | A549 13.8 µM | EKVX 17.3 µM | IGROV-1 11 µM | LOX IMVI 12.2 µM | Malme-3M 11.7 µM | SF-295 11.5 µM | SF-539 16.2 µM | SK-MEL-28 14.7 µM | SK-MEL-2 13.3 µM | SK-OV-3 18.4 µM | SN12C 11.9 µM | SNB-19 14.4 µM | U-251 12.8 µM

O=c1c2cc(Br)ccc2nc(-c2ccccc2)n1NCC1(O)OCC(O)C(O)C1O (stereo not drawn)
inactive: 786-0 > 100 µM | A498 > 100 µM | A549 > 100 µM | EKVX > 100 µM | LOX IMVI > 100 µM | Malme-3M > 100 µM | SF-295 > 100 µM | SF-539 > 100 µM | SK-MEL-28 > 100 µM | SK-MEL-2 > 100 µM | SK-OV-3 > 100 µM | SN12C > 100 µM | SNB-19 > 100 µM | SR 48.8 µM | U-251 > 100 µM

OCC(O)C(OC1OC(CO)C(O)C(O)C1O)c1nn(-c2ccccc2)c2nc3cc(Cl)c(Cl)cc3cc12 (stereo not drawn)
inactive: 786-0 > 100 µM | A498 > 100 µM | EKVX > 100 µM | LOX IMVI > 100 µM | Malme-3M > 100 µM | SF-295 > 100 µM | SF-539 > 100 µM | SK-MEL-28 > 100 µM | SK-OV-3 > 100 µM | SN12C > 100 µM | SNB-19 > 100 µM | SR > 100 µM | U-251 > 100 µM

COC(=O)C(=O)C(C(=O)C(=O)Nc1cc(Cl)c(Cl)cc1Cl)c1nc2ccc([N+](=O)[O-])cc2nc1O (stereo not drawn)
inactive: 786-0 > 100 µM | A549 > 100 µM | EKVX 48.5 µM | IGROV-1 > 100 µM | LOX IMVI > 100 µM | Malme-3M > 100 µM | SF-295 > 100 µM | SF-539 > 100 µM | SK-MEL-28 > 100 µM | SK-MEL-2 > 100 µM | SK-OV-3 > 100 µM | SN12C > 100 µM | SNB-19 > 100 µM | SR > 100 µM | U-251 > 100 µM

Cc1cccc(C2=NC(C)(C)C(C)(C)N=C2c2cccc(C)n2)n1
inactive: 786-0 > 100 µM | A498 > 100 µM | A549 > 100 µM | EKVX > 100 µM | IGROV-1 38.5 µM | LOX IMVI > 100 µM | Malme-3M > 100 µM | SF-295 > 100 µM | SF-539 > 100 µM | SK-MEL-28 > 100 µM | SK-MEL-2 > 100 µM | SK-OV-3 > 100 µM | SNB-19 > 100 µM | U-251 > 100 µM

COC1=C(C(=O)OC(C)(C)C)C23CCCCC2(C(C(=O)OC(C)(C)C)=C(OC)C3C(=O)OC(C)(C)C)C1C(=O)OC(C)(C)C (stereo not drawn)
inactive: 786-0 > 100 µM | A498 > 100 µM | A549 23 µM | EKVX 50.7 µM | IGROV-1 49.2 µM | LOX IMVI 34.4 µM | Malme-3M 55.8 µM | SF-295 4.78 µM | SF-539 48.3 µM | SK-MEL-2 4.18 µM | SK-OV-3 > 100 µM | SN12C 38.2 µM | SNB-19 > 100 µM | SR 19.6 µM | U-251 49.9 µM

CCCCCCCCCCCCCP(=O)(O)O
inactive: 786-0 > 100 µM | A498 > 100 µM | A549 > 100 µM | EKVX > 100 µM | IGROV-1 > 100 µM | LOX IMVI > 100 µM | Malme-3M > 100 µM | SF-295 > 100 µM | SF-539 > 100 µM | SK-MEL-28 > 100 µM | SK-MEL-2 > 100 µM | SK-OV-3 > 100 µM | SN12C > 100 µM | SNB-19 67.1 µM | U-251 45.2 µM

CNC(=S)NC(=S)N(C)C
inactive: 786-0 > 100 µM | A498 > 100 µM | A549 7.67 µM | EKVX > 100 µM | IGROV-1 > 100 µM | LOX IMVI 4.95 µM | SF-295 > 100 µM | SF-539 > 100 µM | SK-MEL-28 6.32 µM | SK-OV-3 > 100 µM | SN12C > 100 µM | SNB-19 > 100 µM | SR 3.44 µM | U-251 > 100 µM

N#Cc1ccccc1NC(=O)/C(=N\N)C(C(=O)c1ccncc1)C1OC(=O)c2ccccc21 (stereo not drawn)
inactive: 786-0 > 100 µM | A549 > 100 µM | EKVX > 100 µM | IGROV-1 > 100 µM | LOX IMVI > 100 µM | Malme-3M > 100 µM | SF-295 > 100 µM | SF-539 > 100 µM | SK-MEL-28 > 100 µM | SK-MEL-2 > 100 µM | SK-OV-3 > 100 µM | SN12C > 100 µM | SNB-19 > 100 µM | SR > 100 µM | U-251 > 100 µM

COc1ccc(/C(=C\c2cc(OC)c(OC)c(OC)c2)C(=O)O)cc1
inactive: 786-0 38 µM | A498 15.9 µM | A549 40.1 µM | EKVX 57 µM | IGROV-1 48.4 µM | LOX IMVI 27.5 µM | Malme-3M 55.3 µM | SF-295 19.9 µM | SF-539 14.2 µM | SK-MEL-28 76.4 µM | SN12C 37.9 µM | SNB-19 54.2 µM | SR 38.8 µM | U-251 44.6 µM

COC(=O)[C@]1(C)CCC[C@]2(C)C3CC4OOC3(C=C4C(C)(C)O)CCC21 (stereo partly drawn)
inactive: 786-0 30.1 µM | A498 24.4 µM | A549 38.4 µM | EKVX 75.2 µM | IGROV-1 72.4 µM | LOX IMVI 36.8 µM | Malme-3M > 100 µM | SF-295 95.9 µM | SF-539 > 100 µM | SK-MEL-2 > 100 µM | SK-OV-3 76.7 µM | SN12C > 100 µM | SNB-19 > 100 µM | U-251 > 100 µM

O=C1OCC2C1C1c3ccccc3C(O)c3ccccc3C21 (stereo not drawn)
inactive: 786-0 > 100 µM | A498 > 100 µM | A549 > 100 µM | EKVX > 100 µM | IGROV-1 > 100 µM | LOX IMVI > 100 µM | Malme-3M > 100 µM | SF-295 > 100 µM | SF-539 > 100 µM | SK-MEL-28 > 100 µM | SK-MEL-2 > 100 µM | SK-OV-3 > 100 µM | SN12C > 100 µM | SR > 100 µM | U-251 > 100 µM

CC1=N/C(=C\c2ccc(/C=C3/N=C(C)OC3=O)cc2)C(=O)O1
inactive: 786-0 > 100 µM | A498 > 100 µM | A549 > 100 µM | IGROV-1 > 100 µM | LOX IMVI > 100 µM | Malme-3M > 100 µM | SF-539 > 100 µM | SK-MEL-28 > 100 µM | SK-MEL-2 > 100 µM | SK-OV-3 > 100 µM | SN12C > 100 µM | SNB-19 > 100 µM | U-251 > 100 µM

CC1(c2cccc3c2C2(O)C=CC4(CCC32)OCCO4)OCCO1 (stereo not drawn)
inactive: 786-0 > 100 µM | A498 > 100 µM | A549 > 100 µM | EKVX > 100 µM | IGROV-1 > 100 µM | LOX IMVI > 100 µM | Malme-3M > 100 µM | SF-295 > 100 µM | SF-539 > 100 µM | SK-MEL-28 > 100 µM | SK-MEL-2 > 100 µM | SK-OV-3 > 100 µM | SN12C > 100 µM | SNB-19 > 100 µM | U-251 > 100 µM

CCN(CC)C(=O)CCn1cc(F)c(=O)[nH]c1=O
inactive: 786-0 > 100 µM | A549 > 100 µM | EKVX > 100 µM | IGROV-1 > 100 µM | LOX IMVI > 100 µM | Malme-3M > 100 µM | SF-295 > 100 µM | SF-539 > 100 µM | SK-MEL-28 > 100 µM | SK-MEL-2 > 100 µM | SN12C > 100 µM | SNB-19 > 100 µM | SR > 100 µM | U-251 > 100 µM

CCOC(=O)c1cc(=O)n(C)c(=O)n1C
inactive: 786-0 > 100 µM | A498 > 100 µM | A549 > 100 µM | EKVX > 100 µM | IGROV-1 > 100 µM | LOX IMVI > 100 µM | Malme-3M > 100 µM | SF-295 > 100 µM | SF-539 > 100 µM | SK-MEL-28 > 100 µM | SK-MEL-2 > 100 µM | SK-OV-3 > 100 µM | SN12C > 100 µM | SNB-19 > 100 µM | U-251 > 100 µM
